{
  "source": "patent US20230157952A1",
  "about": "“METHOD FOR IMPROVING THE STABILITY OF A PHARMACEUTICAL COMPOSITION COMPRISING A HIGH PENETRATION DRUG, AND THE PHARMACEUTICAL COMPOSITION OBTAINED THEREFROM” (Techfields Inc., priority 2020, published 2023)",
  "key": {"[1]": {"test": "Effect of temperature (and pH) on the stability of the solution (purity)", "format": "physicochemical", "conditions": "7% solution in water"}, "[2]": {"test": "Effect of concentration on the stability of the solution (purity over time)", "conditions": "in water at 25° C."}},
  "data": [
    {"smiles": "CCN(CC)CCOC(=O)CCc1nc(-c2ccccc2)c(-c2ccccc2)o1.Cl", "note": "[2-(diethylamino)ethyl 4,5-diphenyl-2-oxazolepropionate•HCl]", "values": [
      {"measurement": "Stability of the solution at a temperature higher than 40° C. and a pH lower than 3 or greater than 6", "setting": "[1]", "result": "not stable"},
      {"measurement": "Purity at Day 3", "setting": "[2]; 0.01 wt %", "result": 83.8, "unit": "%"},
      {"measurement": "Purity at Day 7", "setting": "[2]; 0.01 wt %", "result": 73.9, "unit": "%"},
      {"measurement": "Purity at Day 14", "setting": "[2]; 0.01 wt %", "result": 58.9, "unit": "%"},
      {"measurement": "Purity at Day 21", "setting": "[2]; 0.01 wt %", "result": 47.6, "unit": "%"},
      {"measurement": "Purity at Day 28", "setting": "[2]; 0.01 wt %", "result": 38.9, "unit": "%"},
      {"measurement": "Purity at hr 0", "setting": "[2]; 0.01 wt %", "result": 97.8, "unit": "%"},
      {"measurement": "Purity at Day 3", "setting": "[2]; 0.1 wt %", "result": 94.7, "unit": "%"},
      {"measurement": "Purity at Day 7", "setting": "[2]; 0.1 wt %", "result": 90.6, "unit": "%"},
      {"measurement": "Purity at Day 14", "setting": "[2]; 0.1 wt %", "result": 83.5, "unit": "%"},
      {"measurement": "Purity at Day 21", "setting": "[2]; 0.1 wt %", "result": 75.7, "unit": "%"},
      {"measurement": "Purity at Day 28", "setting": "[2]; 0.1 wt %", "result": 65.5, "unit": "%"},
      {"measurement": "Purity at hr 0", "setting": "[2]; 0.1 wt %", "result": 97.9, "unit": "%"},
      {"measurement": "Purity at Day 3", "setting": "[2]; 1 wt %", "result": 95.3, "unit": "%"},
      {"measurement": "Purity at Day 7", "setting": "[2]; 1 wt %", "result": 92.9, "unit": "%"},
      {"measurement": "Purity at Day 14", "setting": "[2]; 1 wt %", "result": 88.9, "unit": "%"},
      {"measurement": "Purity at Day 21", "setting": "[2]; 1 wt %", "result": 84.6, "unit": "%"},
      {"measurement": "Purity at Day 28", "setting": "[2]; 1 wt %", "result": 79.2, "unit": "%"},
      {"measurement": "Purity at hr 0", "setting": "[2]; 1 wt %", "result": 98.0, "unit": "%"},
      {"measurement": "Purity at Day 3", "setting": "[2]; 3 wt %", "result": 96.3, "unit": "%"},
      {"measurement": "Purity at Day 7", "setting": "[2]; 3 wt %", "result": 95.1, "unit": "%"},
      {"measurement": "Purity at Day 14", "setting": "[2]; 3 wt %", "result": 92.5, "unit": "%"},
      {"measurement": "Purity at Day 21", "setting": "[2]; 3 wt %", "result": 89.0, "unit": "%"},
      {"measurement": "Purity at Day 28", "setting": "[2]; 3 wt %", "result": 85.7, "unit": "%"},
      {"measurement": "Purity at hr 0", "setting": "[2]; 3 wt %", "result": 98.4, "unit": "%"},
      {"measurement": "Purity at Day 3", "setting": "[2]; 5 wt %", "result": 98.2, "unit": "%"},
      {"measurement": "Purity at Day 7", "setting": "[2]; 5 wt %", "result": 97.8, "unit": "%"},
      {"measurement": "Purity at Day 14", "setting": "[2]; 5 wt %", "result": 97.0, "unit": "%"},
      {"measurement": "Purity at Day 21", "setting": "[2]; 5 wt %", "result": 96.3, "unit": "%"},
      {"measurement": "Purity at Day 28", "setting": "[2]; 5 wt %", "result": 95.0, "unit": "%"},
      {"measurement": "Purity at hr 0", "setting": "[2]; 5 wt %", "result": 98.5, "unit": "%"},
      {"measurement": "Purity at Day 3", "setting": "[2]; 7 wt %", "result": 98.6, "unit": "%"},
      {"measurement": "Purity at Day 7", "setting": "[2]; 7 wt %", "result": 98.2, "unit": "%"},
      {"measurement": "Purity at Day 14", "setting": "[2]; 7 wt %", "result": 98.0, "unit": "%"},
      {"measurement": "Purity at Day 21", "setting": "[2]; 7 wt %", "result": 97.7, "unit": "%"},
      {"measurement": "Purity at Day 28", "setting": "[2]; 7 wt %", "result": 97.4, "unit": "%"},
      {"measurement": "Purity at hr 0", "setting": "[2]; 7 wt %", "result": 98.8, "unit": "%"},
      {"measurement": "Purity at Day 3", "setting": "[2]; 8 wt %", "result": 98.7, "unit": "%"},
      {"measurement": "Purity at Day 7", "setting": "[2]; 8 wt %", "result": 98.3, "unit": "%"},
      {"measurement": "Purity at Day 14", "setting": "[2]; 8 wt %", "result": 97.9, "unit": "%"},
      {"measurement": "Purity at Day 21", "setting": "[2]; 8 wt %", "result": 97.7, "unit": "%"},
      {"measurement": "Purity at Day 28", "setting": "[2]; 8 wt %", "result": 97.5, "unit": "%"},
      {"measurement": "Purity at hr 0", "setting": "[2]; 8 wt %", "result": 98.7, "unit": "%"},
      {"measurement": "Purity at Day 3", "setting": "[2]; 10 wt %", "result": 98.6, "unit": "%"},
      {"measurement": "Purity at Day 7", "setting": "[2]; 10 wt %", "result": 98.5, "unit": "%"},
      {"measurement": "Purity at Day 14", "setting": "[2]; 10 wt %", "result": 98.2, "unit": "%"},
      {"measurement": "Purity at Day 21", "setting": "[2]; 10 wt %", "result": 97.8, "unit": "%"},
      {"measurement": "Purity at Day 28", "setting": "[2]; 10 wt %", "result": 97.4, "unit": "%"},
      {"measurement": "Purity at hr 0", "setting": "[2]; 10 wt %", "result": 98.8, "unit": "%"},
      {"measurement": "Purity at Day 3", "setting": "[2]; 15 wt %", "result": 98.7, "unit": "%"},
      {"measurement": "Purity at Day 7", "setting": "[2]; 15 wt %", "result": 98.4, "unit": "%"},
      {"measurement": "Purity at Day 14", "setting": "[2]; 15 wt %", "result": 98.1, "unit": "%"},
      {"measurement": "Purity at Day 21", "setting": "[2]; 15 wt %", "result": 97.9, "unit": "%"},
      {"measurement": "Purity at Day 28", "setting": "[2]; 15 wt %", "result": 97.5, "unit": "%"},
      {"measurement": "Purity at hr 0", "setting": "[2]; 15 wt %", "result": 98.8, "unit": "%"},
      {"measurement": "Purity at Day 3", "setting": "[2]; 20 wt %", "result": 98.7, "unit": "%"},
      {"measurement": "Purity at Day 7", "setting": "[2]; 20 wt %", "result": 98.5, "unit": "%"},
      {"measurement": "Purity at Day 14", "setting": "[2]; 20 wt %", "result": 98.2, "unit": "%"},
      {"measurement": "Purity at Day 21", "setting": "[2]; 20 wt %", "result": 97.8, "unit": "%"},
      {"measurement": "Purity at Day 28", "setting": "[2]; 20 wt %", "result": 97.5, "unit": "%"},
      {"measurement": "Purity at hr 0", "setting": "[2]; 20 wt %", "result": 98.7, "unit": "%"},
      {"measurement": "Purity at Day 3", "setting": "[2]; 30 wt %", "result": 98.7, "unit": "%"},
      {"measurement": "Purity at Day 7", "setting": "[2]; 30 wt %", "result": 98.5, "unit": "%"},
      {"measurement": "Purity at Day 14", "setting": "[2]; 30 wt %", "result": 98.3, "unit": "%"},
      {"measurement": "Purity at Day 21", "setting": "[2]; 30 wt %", "result": 97.9, "unit": "%"},
      {"measurement": "Purity at Day 28", "setting": "[2]; 30 wt %", "result": 97.6, "unit": "%"},
      {"measurement": "Purity at hr 0", "setting": "[2]; 30 wt %", "result": 98.8, "unit": "%"},
      {"measurement": "Purity at Day 3", "setting": "[2]; 50 wt %", "result": 98.7, "unit": "%"},
      {"measurement": "Purity at Day 7", "setting": "[2]; 50 wt %", "result": 98.5, "unit": "%"},
      {"measurement": "Purity at Day 14", "setting": "[2]; 50 wt %", "result": 98.2, "unit": "%"},
      {"measurement": "Purity at Day 21", "setting": "[2]; 50 wt %", "result": 97.8, "unit": "%"},
      {"measurement": "Purity at Day 28", "setting": "[2]; 50 wt %", "result": 97.5, "unit": "%"},
      {"measurement": "Purity at hr 0", "setting": "[2]; 50 wt %", "result": 98.8, "unit": "%"},
      {"measurement": "Stability when the concentration is 0.1% or lower", "setting": "[2]", "result": "not stable"}
    ]}
  ]
}
